System: Mus musculus
[1] = reproduction developmental, oral, gavage, M, C57BL/6, generation: F1, F1: spleen: mean percent splenic CD4+CD25+Foxp3+ T cells
[2] = short-term, duration: 4 weeks, oral, gavage, M, TNF-alpha mRNA levels in liver (normalized to GAPDH)
[3] = short-term, duration: 4 days, dermal, F, BALB/c, body weight + thymus: thymus: absolute weight
[4] = short-term, duration: 10 days, oral, diet, M, C57BL/6, bone marrow: bone marrow: no. of CD19+ B-lymphoid cells + bone marrow: bone marrow: no. of early mature CD19+CD138-IgM+ B cells + bone …
[5] = short-term, duration: 10 days, oral, diet, M, C57BL/6, serum AH50 + serum C3 + serum CH50

O=C([O-])C(F)(F)C(F)(F)C(F)(F)C(F)(F)C(F)(F)C(F)(F)C(F)(F)F.[NH4+] [Ammonium perfluorooctanoate]
LOEL (acute, duration: 1 days, injection, intraperitoneal, serum histamine content): 1 mg/kg-day | NOEL (developmental, duration: 9 days, oral, drinking water, F, C57BL/6, generation: F1, F1: IgM antibody titer (SRBC) + F1: spleen: spleen: relative weight + F1: thymus: thymus: relative weight): 6.7 mg/L | NOEL (developmental, duration: 16 days, oral, gavage, F, CD1, generation: F1, F1: spleen: spleen: relative weight (ovx)): 5 mg/kg-day | NOEL (reproduction developmental, oral, diet, M/F, BALB/c, generation: F1, F1: airway MCh sensitivity + F1: airway resistance (at 25 mg/mL methacholine) + F1: lung: BALF inflammatory cell counts: eosinophils + F1: …): 4 ppm | LOEL (reproduction developmental, oral, diet, M/F, BALB/c, generation: F1, F1: airway MCh sensitivity + F1: airway resistance (at 25 mg/mL methacholine) + F1: lung: BALF inflammatory cell counts: macrophages + F1: …): 4 ppm | NOEL (reproduction developmental, oral, gavage, F, C57BL/6, generation: F1, F1: mean serum anti-MBP): 2 mg/kg-day | NOEL (reproduction developmental, oral, gavage, F, C57BL/6, generation: F1, F1: mean serum anti-dsDNA + F1: spleen: mean percent splenic CD4+CD25+Foxp3+ T cells): 0.2 mg/kg-day | LOEL (reproduction developmental, oral, gavage, F, C57BL/6, generation: F1, F1: mean serum anti-ssDNA + F1: spleen (CD4+CD25+): IL-10 levels): 0.02 mg/kg-day | LOEL (reproduction developmental, oral, gavage, F, C57BL/6, generation: F1, F1: spleen: mean percent splenic CD4+CD25+Foxp3+ T cells): 2 mg/kg-day | NOEL (reproduction developmental, oral, gavage, M, C57BL/6, generation: F1, F1: mean serum anti-dsDNA + F1: mean serum anti-MBP + F1: mean serum anti-ssDNA): 2 mg/kg-day | LOEL (reproduction developmental, oral, gavage, M, C57BL/6, generation: F1, F1: spleen (CD4+CD25+): IL-10 levels): 0.02 mg/kg-day | LOEL [1]: 2 mg/kg-day | NOEL [1]: 0.2 mg/kg-day | NOEL (short-term, duration: 3 weeks, oral, diet, M, C57BL/6, fold changes of proinflammatory cytokine genes in liver: IL-1b gene (relative to control) + fold changes of proinflammatory cytokine genes …): 5 mg/kg-day | LOEL (short-term, duration: 3 weeks, oral, diet, M, C57BL/6, fold changes of proinflammatory cytokine genes in liver: IP-10 gene (relative to control) + fold changes of proinflammatory cytokine genes …): 5 mg/kg-day | NOEL (short-term, duration: 3 weeks, oral, gavage, F, BALB/c, IgM antibody level (TNP 1:50)): 20 mg/kg-day | NOEL (short-term, duration: 4 weeks, oral, gavage, M, 129S4/SvlmJ, TNF-alpha mRNA levels in liver (normalized to GAPDH)): 21.6 mg/kg-day | LOEL [2]: 10.8 mg/kg-day | NOEL [2]: 5.39 mg/kg-day | NOEL (short-term, duration: 2 days, oral, diet, M, C57BL/6, spleen: spleen: absolute weight + thymus: thymus: absolute weight + thymus: total thymic DNA content): 0.02% | LOEL (short-term, duration: 2 days, oral, diet, M, C57BL/6, spleen: total splenic DNA content): 0.02% | NOEL (short-term, duration: 4 days, dermal, F, BALB/c, OVA-specific IgE): 1.5% | LOEL (short-term, duration: 4 days, dermal, F, BALB/c, PCA passive cutaneous anaphylaxis): 10 mg/kg-day | LOEL (short-term, duration: 4 days, dermal, F, BALB/c, blood serum: OVA-specific IgE + blood serum: total serum IgE + OVA-specific airway hyperreactivity (AUC) + spleen: spleen B220+ cells + …): 1% | NOEL (short-term, duration: 4 days, dermal, F, BALB/c, blood serum: OVA-specific IgE + blood serum: total serum IgE + OVA-specific airway hyperreactivity (AUC) + thymus: thymus cellularity + …): 0.75% | NOEL (short-term, duration: 4 days, dermal, F, BALB/c, blood serum: OVA-specific IgE + spleen: spleen B220+ cells + spleen: spleen: absolute weight + thymus: thymus: absolute weight + total serum…): 0.5% | LOEL (short-term, duration: 4 days, dermal, F, BALB/c, blood serum: OVA-specific IgE + thymus: thymus: absolute weight + total serum IgE): 0.75% | LOEL [3]: 1.5% | NOEL [3]: 1% | LOEL (short-term, duration: 4 days, dermal, F, BALB/c, spleen: spleen cellularity + spleen: spleen: absolute weight): 0.5% | LOEL (short-term, duration: 5 days, oral, diet, M, C57BL/6, spleen: spleen: absolute weight + spleen: total splenic DNA content + thymus: thymus: absolute weight + thymus: total thymic DNA content): 0.02% | LOEL (short-term, duration: 7 days, oral, diet, M, C57BL/6, blood serum: TNF-alpha levels): 0.02% | LOEL (short-term, duration: 7 days, oral, diet, M, C57BL/6, body weight + spleen: lymphocyte proliferation (ConA) + spleen: lymphocyte proliferation (LPS) + spleen: spleen CD19+ cells + spleen: spleen…): 0.02% | NOEL (short-term, duration: 7 days, oral, diet, M, C57BL/6, cell cycle of splenocytes: G0/G1 phase + cell cycle of splenocytes: G1/2 phase + cell cycle of splenocytes: G2/M phase): 0.02% | LOEL (short-term, duration: 7 days, oral, diet, M, C57BL/6, cell cycle of splenocytes: S phase + cell cycle of thymocytes: G0/G1 phase + cell cycle of thymocytes: G1/2 phase + cell cycle of thymocytes…): 0.02% | LOEL (short-term, duration: 7 days, oral, diet, M, C57BL/6, lymphocyte proliferation in response to ConA (1 day culture) + lymphocyte proliferation in response to ConA (2 day culture) + lymphocyte …): 200 mg/kg-day | NOEL (short-term, duration: 7 days, oral, diet, M, C57BL/6, spleen: splenocytes in G0/1 phase + splenocytes in G1/2 phase + splenocytes in G2/M phase): 200 mg/kg-day | LOEL (short-term, duration: 7 days, oral, diet, M, body weight + spleen: spleen CD19+ cells + spleen: spleen CD3+ cells + spleen: spleen cellularity + thymocyte G0/1 phase + thymocyte G1/2 …): 0.02% | NOEL (short-term, duration: 7 days, oral, diet, M, spleen: lymphocyte proliferation (ConA) + spleen: lymphocyte proliferation (LPS)): 0.02% | LOEL (short-term, duration: 7 days, oral, gavage, F, BALB/c, Peripheral blood phagocytosis (HEMA) + spleen: lymphocyte proliferation (ConA) + spleen: lymphocyte proliferation (LPS) + Splenic NK cell …): 20 mg/kg-day | NOEL (short-term, duration: 7 days, oral, gavage, F, BALB/c, spleen: spleen CD4+ cells + spleen: spleen CD49b+ cells + spleen: spleen CD8+ cells + spleen: spleen cellularity + spleen: spleen: relative …): 20 mg/kg-day | LOEL (short-term, duration: 10 days, oral, diet, M, C57BL/6, IgG1 antibody-secreting cells (HRBC) + IgG1 antibody level (HRBC 1:160) + IgG1 antibody level (HRBC 1:20) + IgG1 antibody level (HRBC 1:80…): 0.02% | NOEL (short-term, duration: 10 days, oral, diet, M, C57BL/6, IgG3 antibody-secreting cells (HRBC) + IgM antibody-secreting cells (HRBC) + IgM antibody level (HRBC 1:160)): 0.02% | LOEL (short-term, duration: 10 days, oral, diet, M, C57BL/6, blood serum: IL-6 levels + blood serum: IL-6 levels (+LPS in vivo) + blood serum: TNF-alpha levels (+LPS in vivo) + bone marrow: IL-6 levels…): 0.02% | NOEL (short-term, duration: 10 days, oral, diet, M, C57BL/6, blood serum: TNF-alpha levels + bone marrow: IL-6 levels + spleen: IL-6 levels): 0.02% | LOEL (short-term, duration: 10 days, oral, diet, M, C57BL/6, bone marrow: bone marrow cellularity + bone marrow: bone marrow: no. of Gr1+CD11b+ myeloid cells + bone marrow: bone marrow: no. of immature…): 0.02% | NOEL (short-term, duration: 10 days, oral, diet, M, C57BL/6, bone marrow: bone marrow cellularity + bone marrow: bone marrow: no. of Gr1+CD11b+ myeloid cells + spleen: spleen cellularity + spleen: …): 0.002% | LOEL [4]: 0.002% | NOEL [4]: 0.001% | NOEL (short-term, duration: 10 days, oral, diet, M, C57BL/6, intrahepatic immune cells: all leukocytes (CD45+) + intrahepatic immune cells: B cells (CD19+) + intrahepatic immune cells: CD138 (plasma …): 0.002% | LOEL (short-term, duration: 10 days, oral, diet, M, C57BL/6, intrahepatic immune cells: all leukocytes (CD45+) + intrahepatic immune cells: B cells (CD19+) + intrahepatic immune cells: cytotoxic T …): 0.002% | NOEL (short-term, duration: 10 days, oral, diet, M, C57BL/6, liver: IFN-gamma levels (+Con A in vivo) + liver: IL-4 levels (+Con A in vivo) + liver: TNF-alpha levels (+Con A in vivo)): 0.002% | LOEL (short-term, duration: 10 days, oral, diet, M, C57BL/6, liver: IFN-gamma levels + liver: IL-4 levels + liver: IL-6 levels + liver: IL-6 levels (+Con A in vivo) + liver: TNF-alpha levels): 0.002% | LOEL [5]: 0.02% | NOEL [5]: 0.01% | NOEL (short-term, duration: 10 days, oral, diet, M, C57BL/6, spleen: relative splenic DNA content): 0.02% | LOEL (short-term, duration: 10 days, oral, diet, M, C57BL/6, spleen: spleen CD19+ cells + spleen: spleen CD3+ cells + spleen: spleen CD4+ cells + spleen: spleen CD8+ cells + spleen: spleen: absolute …): 0.02% | LOEL (short-term, duration: 10 days, oral, diet, M, C57BL/6, spleen: spleen CD19+ cells + spleen: spleen CD4+ cells + spleen: spleen CD8+ cells + spleen: spleen cellularity + spleen: spleen NK1.1+ …): 0.02% | LOEL (short-term, duration: 10 days, oral, diet, M, C57BL/6, spleen: spleen: absolute weight + spleen: spleen: relative weight + spleen: total splenic DNA content + thymus: relative thymic DNA content…): 0.02% | NOEL (short-term, duration: 10 days, oral, diet, M, C57BL/6, spleen: spleen: absolute weight + thymocyte cell proliferation: G0/G1 phase 10 days recovery + thymocyte cell proliferation: G1/2 phase 2 …): 0.02%

Source: EPA's ToxValDB 9.5
